Measured values published in patent US6936585B2, “Corticotropin releasing factor 2 receptor agonists” (priority 2002, dated 2005).
Where two headings read alike, the source gives them in different places. Ends that are not written are not given here. Peptide text beside a SMILES is read from it.

How the values were obtained:
CRF2R = molecular target: T1, CRF2R (Homo sapiens, UniProt Q13324); experiment: CRF2R agonist activation (EC50 / Emax), called comparative CRF binding; type: cell-based; conditions: for EC50: read-out: CRF2R EC50
T1 sequence (Q13324 1-411): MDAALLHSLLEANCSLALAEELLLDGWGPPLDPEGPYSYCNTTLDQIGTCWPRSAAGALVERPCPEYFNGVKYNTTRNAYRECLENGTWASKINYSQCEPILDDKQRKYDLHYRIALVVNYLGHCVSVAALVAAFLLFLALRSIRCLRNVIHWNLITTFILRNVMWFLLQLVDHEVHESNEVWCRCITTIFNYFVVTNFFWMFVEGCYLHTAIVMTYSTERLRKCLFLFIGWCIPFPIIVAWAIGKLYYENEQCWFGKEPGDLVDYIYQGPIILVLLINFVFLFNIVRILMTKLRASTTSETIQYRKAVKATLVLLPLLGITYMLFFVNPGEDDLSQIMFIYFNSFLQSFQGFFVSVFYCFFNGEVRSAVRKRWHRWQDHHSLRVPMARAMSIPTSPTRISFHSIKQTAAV
Summary of the method: (§1)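 Agonism at each human CRF receptor subtype is inferred from increased cAMP relative to vehicle, using cells expressing that subtype and either lysate cAMP measurement or a cAMP response element reporter.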

CRF1R = molecular target: T2, CRF1R (Homo sapiens, UniProt P34998); experiment: CRF1R agonist activation (EC50 / Emax), called comparative CRF binding; type: cell-based; conditions: for EC50: read-out: CRF1R EC50
T2 sequence (P34998 24-415): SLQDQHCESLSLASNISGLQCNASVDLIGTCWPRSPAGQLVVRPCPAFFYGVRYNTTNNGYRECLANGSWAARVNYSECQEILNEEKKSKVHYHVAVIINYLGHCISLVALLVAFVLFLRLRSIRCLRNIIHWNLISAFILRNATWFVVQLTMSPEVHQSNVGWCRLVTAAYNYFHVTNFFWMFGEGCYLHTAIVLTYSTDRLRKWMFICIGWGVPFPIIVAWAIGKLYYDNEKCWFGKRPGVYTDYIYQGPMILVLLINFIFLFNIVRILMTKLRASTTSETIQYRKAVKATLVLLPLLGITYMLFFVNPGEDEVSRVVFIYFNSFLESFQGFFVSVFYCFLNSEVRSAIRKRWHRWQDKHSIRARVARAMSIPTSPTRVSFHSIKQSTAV
Summary of the method: as §1

Row | Compound | EC50 (CRF2R) [nM] | Emax (CRF2R; read-out: CRF2R Emax) [%] | EC50 (CRF1R) [nM] | Emax (CRF1R; read-out: CRF1R Emax) [%] | Emax (CRF2R; Emax, read-out: CRF2R (Emax %)) [%] | Emax (CRF1R; Emax, read-out: CRF1R (Emax %)) [%]
1 | CC[C@H](C)[C@H](NC(=O)[C@H](C)NC(=O)[C@H](CC(N)=O)NC(=O)[C@H](CCC(N)=O)NC(=O)[C@H](CCC(=O)O)NC(=O)[C@H](C)NC(=O)[C@H](CCCNC(=N)N)NC(=O)[C@H](CCC(=O)O)NC(=O)[C@H](CCCNC(=N)N)NC(=O)[C@H](CCC(N)=O)NC(=O)[C@H](CO)NC(=O)[C@H](CCC(N)=O)NC(=O)[C@@H](NC(=O)[C@H](CCCCN)NC(=O)[C@H](CCC(=O)O)NC(=O)[C@H](CC(C)C)NC(=O)[C@H](CCC(=O)O)NC(=O)[C@H](CC(C)C)NC(=O)[C@H](CC(C)C)NC(=O)[C@@H](NC(=O)[C@H](CCCNC(=N)N)NC(=O)[C@H](CC(C)C)NC(=O)[C@H](CC(C)C)NC(=O)[C@@H](NC(=O)[C@H](CC(C)C)NC(=O)[C@@H]1CCCN1C(=O)[C@H](CC(C)C)NC(=O)[C@H](CC(=O)O)NC(=O)[C@@H](NC(=O)[C@H](CO)NC(=O)[C@H](CC(C)C)NC(=O)[C@H](CO)NC(=O)[C@@H]1CCCN1C(=O)[C@H](CC(N)=O)NC(=O)[C@@H](N)CC(=O)O)[C@@H](C)CC)[C@@H](C)CC)[C@@H](C)O)[C@@H](C)O)C(=O)N[C@H](C(=O)N[C@@H](Cc1ccccc1)C(=O)N[C@@H](C)C(=O)N[C@@H](CO)C(=O)N[C@H](C(N)=O)C(C)C)[C@@H](C)CC [compound 345] (H-DNPSLSIDLPLILLRTLLELEKTQSQRERAEQNAIIFASV-NH2; N-terminus assumed) | 39.7 | 100 | ≥ 1000 | 18.8 | – | –
2 | CC[C@H](C)[C@H](NC(=O)[C@H](CCC(N)=O)NC(=O)[C@H](C)NC(=O)[C@H](CCSC)NC(=O)[C@H](CC(C)C)NC(=O)[C@H](Cc1c[nH]cn1)NC(=O)[C@H](C)NC(=O)[C@H](CC(N)=O)NC(=O)[C@H](C)NC(=O)[C@H](C)NC(=O)[C@H](C)NC(=O)[C@H](CCC(N)=O)NC(=O)[C@H](C)NC(=O)[C@H](CCCNC(=N)N)NC(=O)[C@H](CC(C)C)NC(=O)[C@H](CC(N)=O)NC(=O)[C@H](CCCCN)NC(=O)[C@H](C)NC(=O)[C@H](CCCCN)NC(=O)[C@H](C)NC(=O)[C@@H](NC(=O)[C@H](CC(N)=O)NC(=O)[C@H](Cc1ccccc1)NC(=O)[C@H](CC(C)C)NC(=O)[C@H](CC(C)C)NC(=O)[C@H](CC(N)=O)NC(=O)[C@H](CCSC)NC(=O)[C@@H](NC(=O)[C@H](CC(N)=O)NC(=O)[C@@H](NC(=O)[C@@H]1CCCN1C(=O)[C@@H](NC(=O)[C@H](CC(=O)O)NC(=O)[C@H](CC(C)C)NC(=O)[C@H](CO)NC(=O)[C@H](CC(C)C)NC(=O)[C@@H](NC(=O)[C@H](Cc1ccccc1)NC(=O)[C@H](CCCCN)NC(=O)[C@@H](N)[C@@H](C)O)[C@@H](C)O)C(C)C)[C@@H](C)O)[C@@H](C)CC)[C@@H](C)CC)C(N)=O [hUroIII, human urocortin III, reference compound] (H-TKFTLSLDVPTNIMNLLFNIAKAKNLRAQAAANAHLMAQI-NH2) | – | – | – | – | 60 | 10.2
3 | SQEPPISLDLPTQLLREVLEMTKADQLAQQAHSNRKLLDIA-NH2 [compound 105] | – | 9.15 | – | 5.2 | – | –
4 | CC[C@H](C)[C@H](N)C(=O)N[C@H](C(=O)N[C@@H](CC(C)C)C(=O)N[C@@H](CO)C(=O)N[C@@H](CC(C)C)C(=O)N[C@@H](CC(=O)O)C(=O)N[C@H](C(=O)N1CCC[C@H]1C(=O)N[C@H](C(=O)NCC(=O)N[C@@H](CC(C)C)C(=O)N[C@@H](CC(C)C)C(=O)N[C@@H](CCC(N)=O)C(=O)N[C@H](C(=O)N[C@@H](CC(C)C)C(=O)N[C@@H](CC(C)C)C(=O)N[C@@H](CCC(=O)O)C(=O)N[C@@H](CCC(N)=O)C(=O)N[C@@H](CCC(=O)O)C(=O)N[C@@H](CCCNC(=N)N)C(=O)N[C@@H](CCC(N)=O)C(=O)N[C@@H](CCCNC(=N)N)C(=O)N[C@@H](C)C(=O)N[C@@H](C)C(=O)N[C@@H](CCCNC(=N)N)C(=O)N[C@@H](CCC(=O)O)C(=O)N[C@@H](CCC(N)=O)C(=O)N[C@@H](C)C(=O)N[C@H](C(=O)N[C@H](C(=O)N[C@@H](CC(N)=O)C(=O)N[C@@H](C)C(=O)N[C@@H](CCCNC(=N)N)C(=O)N[C@H](C(=O)N[C@@H](CC(C)C)C(=O)N[C@@H](C)C(=O)N[C@@H](CCCNC(=N)N)C(=O)N[C@H](C(N)=O)C(C)C)[C@@H](C)CC)[C@@H](C)O)[C@@H](C)O)[C@@H](C)CC)[C@@H](C)CC)C(C)C)C(C)C [compound 111] (H-IVLSLDVPIGLLQILLEQERQRAAREQATTNARILARV-NH2; N-terminus assumed) | – | 99 | – | 9 | – | –
5 | CC[C@H](C)[C@H](NC(=O)[C@H](C)NC(=O)[C@H](CC(N)=O)NC(=O)[C@H](CCC(N)=O)NC(=O)[C@H](CCC(=O)O)NC(=O)[C@H](C)NC(=O)[C@H](CCCNC(=N)N)NC(=O)[C@H](CCC(=O)O)NC(=O)[C@H](CCCNC(=N)N)NC(=O)[C@H](CCC(N)=O)NC(=O)[C@H](CO)NC(=O)[C@H](CCC(N)=O)NC(=O)[C@@H](NC(=O)[C@H](CCCNC(=N)N)NC(=O)[C@H](C)NC(=O)[C@H](CC(C)C)NC(=O)[C@H](CCC(=O)O)NC(=O)[C@H](CC(C)C)NC(=O)[C@H](CC(C)C)NC(=O)[C@@H](NC(=O)[C@H](CCCNC(=N)N)NC(=O)[C@H](CC(C)C)NC(=O)[C@H](CC(C)C)NC(=O)[C@H](Cc1ccc(O)cc1)NC(=O)[C@H](CC(C)C)NC(=O)[C@@H]1CCCN1C(=O)[C@H](CC(C)C)NC(=O)[C@H](CC(=O)O)NC(=O)[C@@H](NC(=O)[C@H](CO)NC(=O)[C@H](CC(C)C)NC(=O)[C@H](CO)NC(=O)[C@@H]1CCCN1C(=O)[C@H](CC(N)=O)NC(=O)[C@@H](N)CC(=O)O)[C@@H](C)CC)[C@@H](C)O)[C@@H](C)O)C(=O)N[C@H](C(=O)N[C@@H](Cc1ccccc1)C(=O)N[C@@H](C)C(=O)N[C@@H](CO)C(=O)N[C@H](C(N)=O)C(C)C)[C@@H](C)CC [compound 177] (H-DNPSLSIDLPLYLLRTLLELARTQSQRERAEQNAIIFASV-NH2; N-terminus assumed) | – | 97.7 | – | 69.2 | – | –
6 | CC[C@H](C)[C@H](N)C(=O)N[C@H](C(=O)N[C@@H](CC(C)C)C(=O)N[C@@H](CO)C(=O)N[C@@H](CC(C)C)C(=O)N[C@@H](CC(=O)O)C(=O)N[C@H](C(=O)N1CCC[C@H]1C(=O)N[C@H](C(=O)NCC(=O)N[C@@H](CC(C)C)C(=O)N[C@@H](CC(C)C)C(=O)N[C@@H](CCC(N)=O)C(=O)N[C@H](C(=O)N[C@@H](CC(C)C)C(=O)N[C@@H](CC(C)C)C(=O)N[C@@H](CCC(=O)O)C(=O)N[C@@H](CCC(N)=O)C(=O)N[C@@H](C)C(=O)N[C@@H](CCCNC(=N)N)C(=O)N[C@@H](Cc1c[nH]cn1)C(=O)N[C@@H](C)C(=O)N[C@@H](C)C(=O)N[C@@H](C)C(=O)N[C@@H](Cc1c[nH]cn1)C(=O)N[C@@H](C)C(=O)N[C@@H](C)C(=O)N[C@@H](C)C(=O)N[C@@H](Cc1c[nH]cn1)C(=O)N[C@@H](C)C(=O)N[C@@H](CCC(N)=O)C(=O)N[C@@H](C)C(=O)N[C@@H](Cc1c[nH]cn1)C(=O)N[C@H](C(=O)N[C@@H](CC(C)C)C(=O)N[C@@H](C)C(=O)N[C@@H](Cc1c[nH]cn1)C(=O)N[C@H](C(N)=O)C(C)C)[C@@H](C)CC)[C@@H](C)CC)[C@@H](C)CC)C(C)C)C(C)C [compound 367] (H-IVLSLDVPIGLLQILLEQARHAAAHAAAHAQAHILAHV-NH2) | ≥ 100 | 18 | ≥ 1000 | 6 | – | –
7 | CC[C@H](C)[C@H](NC(=O)[C@H](CC(N)=O)NC(=O)[C@H](C)NC(=O)[C@H](CC(N)=O)NC(=O)[C@H](CCC(N)=O)NC(=O)[C@H](CCC(=O)O)NC(=O)[C@H](C)NC(=O)[C@H](CCCNC(=N)N)NC(=O)[C@H](CCC(=O)O)NC(=O)[C@H](CCCNC(=N)N)NC(=O)[C@H](CCC(N)=O)NC(=O)[C@H](CO)NC(=O)[C@H](CCC(N)=O)NC(=O)[C@@H](NC(=O)[C@H](CCCCN)NC(=O)[C@H](CCC(=O)O)NC(=O)[C@H](CC(C)C)NC(=O)[C@H](CCC(=O)O)NC(=O)[C@H](CC(C)C)NC(=O)[C@H](CC(C)C)NC(=O)[C@@H](NC(=O)[C@H](CCCNC(=N)N)NC(=O)[C@H](CC(C)C)NC(=O)[C@H](CC(C)C)NC(=O)[C@H](CC(C)C)NC(=O)[C@H](CC(C)C)NC(=O)[C@@H]1CCCN1C(=O)[C@H](CC(C)C)NC(=O)[C@H](CC(=O)O)NC(=O)[C@@H](NC(=O)[C@H](CO)NC(=O)[C@H](CC(C)C)NC(=O)[C@H](CO)NC(=O)[C@@H]1CCCN1C(=O)[C@H](CC(N)=O)NC(=O)[C@@H](N)CC(=O)O)[C@@H](C)CC)[C@@H](C)O)[C@@H](C)O)C(=O)N[C@@H](Cc1ccccc1)C(=O)N[C@@H](C)C(=O)N[C@@H](CC(N)=O)C(=O)N[C@H](C(N)=O)C(C)C [compound 326] (H-DNPSLSIDLPLLLLRTLLELEKTQSQRERAEQNANIFANV-NH2; N-terminus assumed) | 33.7 | 100 | ≥ 1000 | 30.1 | – | –
